# According to US20250122174A1 (Shenzhen Yuanli Shenwan Innovative Medicine Co., Ltd., priority 2022, published 2025):
# Target: HPK1 (Homo sapiens (Human), UniProt Q92918)
# Assay: HPK1 Inhibition Assay (ADP-Glo kinase assay)
# Assay type: biochemical
# Details: ATP 10 μM
# How it was run: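 ADP-Glo luminescence read-out after 1 h room-temperature kinase reaction with 10 μM ATP and 0.1 μg/ml MBP. Recombinant human HPK1 at 7.5 ng/μl; buffer 40 mM Tris pH 7.5, 20 mM MgCl2. Compounds serially diluted 5-fold over 10 points from 10 mM DMSO stock.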
# HPK1, sequence (Q92918 1-346 limits assumed): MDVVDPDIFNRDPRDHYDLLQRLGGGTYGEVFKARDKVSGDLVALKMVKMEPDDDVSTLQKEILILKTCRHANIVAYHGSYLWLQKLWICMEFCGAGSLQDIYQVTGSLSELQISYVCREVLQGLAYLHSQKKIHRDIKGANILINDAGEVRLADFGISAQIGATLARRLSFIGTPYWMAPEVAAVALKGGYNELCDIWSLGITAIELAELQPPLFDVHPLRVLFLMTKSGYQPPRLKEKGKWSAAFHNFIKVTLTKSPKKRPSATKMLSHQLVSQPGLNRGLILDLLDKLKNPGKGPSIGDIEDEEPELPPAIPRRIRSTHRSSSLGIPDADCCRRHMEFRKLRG
row,IC50 [nM],Compound
1,< 100,"CC1(C)CN(c2c(NC(=O)c3ccc(=O)n(-c4c(F)cccc4F)n3)ccc3c2cnn3[C@H]2CCOC2)C[C@H]1N [Example 270, N-(4-((S)-4-amino-3,3-dimethylpyrrolidin-1-yl)-1-((S)-tetrahydrofuran-3-yl)-1H-indazol-5-yl)-1-(2,6-difluorophenyl)-6-oxo-1,6-dihydropyridazine-3-carboxamide]"
2,< 100,"CC(C)n1ncc2c(N3C[C@H](N)C4(CC4)C3)c(NC(=O)c3ccc(=O)n(-c4c(F)cccc4F)n3)cc(F)c21 [Example 189, (R)-N-(4-(7-amino-5-azaspiro[2.4]heptan-5-yl)-7-fluoro-1-isopropyl-1H-indazol-5-yl)-1-(2,6-difluorophenyl)-6-oxo-1,6-dihydropyridazine-3-carboxamide]"
3,< 100,Cn1c(C(C)(C)C)nc2c(N3CCC[C@H]3CN)c(NC(=O)c3ccc(=O)n(-c4c(F)cccc4F)n3)ccc21 [Example 103]
4,< 100,"N#Cc1ccncc1-c1ccc(NC(=O)c2ccc(=O)n(-c3c(F)cccc3F)n2)c(N2CC[C@](N)(C(F)(F)F)C2)c1 (single isomer, unassigned) [Example 358]"
5,< 100,"COc1cccc(F)c1-c1cccc(C(=O)Nc2cc(F)ccc2N2C[C@H]3C[C@@H]2CN3)[n+]1[O-] [Example 55, 2-((2-((1R,4R)-2,5-diazabicyclo[2.2.1]heptan-2-yl)-5-fluorophenyl)carbamoyl)-6-(2-fluoro-6-methoxyphenyl)pyridine 1-oxide]"
6,< 100,"Cn1ncc2c(N3CCC[C@@H](N)C3)c(NC(=O)c3ccc(=O)n(-c4c(F)cccc4F)n3)cc(F)c21 [Example 169, (R)-N-(4-(3-aminopiperidin-1-yl)-7-fluoro-1-methyl-1H-indazol-5-yl)-1-(2,6-difluorophenyl)-6-oxo-1,6-dihydropyridazine-3-carboxamide]"
7,< 100,"CC1(C)CN(c2c(NC(=O)c3ccc(=O)n(-c4c(F)cccc4F)n3)ccc3nn(C4CC4)cc23)C[C@H]1N [Example 335, (S)-N-(4-(4-amino-3,3-dimethylpyrrolidin-1-yl)-2-cyclopropyl-2H-indazol-5-yl)-1-(2,6-difluorophenyl)-6-oxo-1,6-dihydropyridazine-3-carboxamide]"
8,100 to 1000,"COc1ccc(Cl)c(F)c1-c1nccc(C(=O)Nc2cc(F)ccc2N2C[C@H]3C[C@@H]2CN3)c1F [Example 4, N-(2-((1R,4R)-2,5-diazabicyclo[2.2.1]heptan-2-yl)-5-fluorophenyl)-2-(3-chloro-2-fluoro-6-methoxyphenyl)-3-fluoroisonicotinamide]"
9,< 100,"CC(C)c1nc2c(N3CC[C@@H](N(C)C)C3)c(NC(=O)c3ccc(=O)n(-c4c(F)cccc4F)n3)ccc2n1C [Example 126, (R)-1-(2,6-difluorophenyl)-N-(4-(3-(dimethylamino)pyrrolidin-1-yl)-2-isopropyl-1-methyl-1H-benzo[d]imidazol-5-yl)-6-oxo-1,6-dihydropyridazine-3-carboxamide]"
10,< 100,"Cn1cc2c(N3CC[C@@H](N)C3)c(NC(=O)c3ccc(=O)n(-c4c(F)cccc4F)n3)ccc2n1 [Example 175, (R)—N-(4-(3-aminopyrrolidin-1-yl)-2-methyl-2H-indazol-5-yl)-1-(2,6-difluorophenyl)-6-oxo-1,6-dihydropyridazine-3-carboxamide]"
11,< 100,"C[C@@H]1CN(c2c(NC(=O)c3ccc(=O)n(-c4c(F)cccc4F)n3)ccc3c2cnn3[C@@H]2CCOC2)C[C@@H]1N [Example 262, N-(4-((3R,4R)-3-amino-4-methylpyrrolidin-1-yl)-1-((R)-tetrahydrofuran-3-yl)-1H-indazol-5-yl)-1-(2,6-difluorophenyl)-6-oxo-1,6-dihydropyridazine-3-carboxamide]"
12,< 100,"N[C@H]1CN(c2c(NC(=O)c3ccc(=O)n(-c4c(F)cccc4F)n3)ccc3nn(C4(C(F)(F)F)CC4)cc23)CC12CC2 (single isomer, unassigned) [Example 313]"
13,< 100,"CC(C)c1nc2c(N3C[C@H](C)[C@@H](N)C3)c(NC(=O)c3ccc(=O)n(-c4c(F)cccc4F)n3)ccc2n1C [Example 111, N-(4-((3R,4S)-3-amino-4-methylpyrrolidin-1-yl)-2-isopropyl-1-methyl-1H-benzo[d]imidazol-5-yl)-1-(2,6-difluorophenyl)-6-oxo-1,6-dihydropyridazine-3-carboxamide]"
14,< 100,"COc1ccc(F)c(F)c1-c1nccc(C(=O)Nc2cc(F)ccc2N2C[C@H]3C[C@@H]2CN3)c1F [Example 5, N-(2-((1R,4R)-2,5-diazabicyclo[2.2.1]heptan-2-yl)-5-fluorophenyl)-2-(2,3-difluoro-6-methoxyphenyl)-3-fluoroisonicotinamide]"
15,< 100,"N[C@@H]1CCCN(c2c(NC(=O)c3ccc(=O)n(-c4c(F)cccc4F)n3)ccc3c2cnn3[C@@H]2CCOC2)C1 [Example 264, N-(4-((R)-3-aminopiperidin-1-yl)-1-((R)-tetrahydrofuran-3-yl)-1H-indazol-5-yl)-1-(2,6-difluorophenyl)-6-oxo-1,6-dihydropyridazine-3-carboxamide]"
16,< 100,"N#Cc1ccncc1-c1ccc(NC(=O)c2ccc(=O)n(-c3c(F)cccc3F)n2)c(N2CC[C@@H](N)C2)c1 [Example 343, (R)-N-(2-(3-aminopyrrolidin-1-yl)-4-(4-cyanopyridin-3-yl)phenyl)-1-(2,6-difluorophenyl)-6-oxo-1,6-dihydropyridazine-3-carboxamide]"
17,< 100,"Cc1nc2c(N3C[C@H](N)C4(CC4)C3)c(NC(=O)c3ccc(=O)n(-c4c(F)cccc4F)n3)ccc2n1[C@H]1CCOC1 [Example 152, N-(4-((R)-7-amino-5-azaspiro[2.4]heptan-5-yl)-2-methyl-1-((S)-tetrahydrofuran-3-yl)-1H-benzo[d]imidazol-5-yl)-1-(2,6-difluorophenyl)-6-oxo-1,6-dihydropyridazine-3-carboxamide]"
18,< 100,"CC(C)c1nc2c(N3CC[C@@H](NC(=O)CN)C3)c(NC(=O)c3ccc(=O)n(-c4c(F)cccc4F)n3)ccc2n1C [Example 131, (R)-N-(4-(3-(2-aminoacetamido)pyrrolidin-1-yl)-2-isopropyl-1-methyl-1H-benzo[d]imidazol-5-yl)-1-(2,6-difluorophenyl)-6-oxo-1,6-dihydropyridazine-3-carboxamide]"
19,< 100,"N[C@@H]1CCN(c2c(NC(=O)c3ccc(=O)n(-c4c(F)cccc4F)n3)ccc3c2cnn3C2CCOCC2)C1 [Example 274, N-[4-[(3R)-3-aminopyrrolidin-1-yl]-1-tetrahydropyran-4-yl-indazol-5-yl]-1-(2,6-difluorophenyl)-6-oxo-pyridazine-3-carboxamid]"
20,< 100,"CN[C@@H]1CCN(c2c(NC(=O)c3ccc(=O)n(-c4c(F)cccc4F)n3)ccc3c2nc(C(C)C)n3C)C1 [Example 127, (R)-1-(2,6-difluorophenyl)-N-(2-isopropyl-1-methyl-4-(3-(methylamino)pyrrolidin-1-yl)-1H-benzo[d]imidazol-5-yl)-6-oxo-1,6-dihydropyridazine-3-carboxamide]"
21,< 100,"CC1(n2cc3c(N4C[C@H](N)C5(CC5)C4)c(NC(=O)c4ccc(=O)n(-c5c(F)cccc5F)n4)ccc3n2)CC1 [Example 311, (R)-N-(4-(7-amino-5-azaspiro[2.4]heptan-5-yl)-2-(1-methylcyclopropyl)-2H-indazol-5-yl)-1-(2,6-difluorophenyl)-6-oxo-1,6-dihydropyridazine-3-carboxamide]"
22,< 100,"COCCn1ncc2c(N3CCC[C@@H](N)C3)c(NC(=O)c3ccc(=O)n(-c4c(F)cccc4F)n3)cc(F)c21 [Example 286, (R)-N-(4-(3-aminopiperidin-1-yl)-7-fluoro-1-(2-methoxyethyl)-1H-indazol-5-yl)-1-(2,6-difluorophenyl)-6-oxo-1,6-dihydropyridazine-3-carboxamide]"
23,< 100,"CC(C)n1cc2c(N3C[C@H](N)C(C)(C)C3)c(NC(=O)c3ccc(=O)n(-c4c(F)cccc4F)n3)ccc2n1 [Example 227, (R)-N-(4-(4-amino-3,3-dimethylpyrrolidin-1-yl)-2-isopropyl-2H-indazol-5-yl)-1-(2,6-difluorophenyl)-6-oxo-1,6-dihydropyridazine-3-carboxamide]"
24,< 100,"COc1cccc(F)c1-c1nccc(C(=O)Nc2ccc3c(nc(C(F)F)n3C)c2N2CCC(N)C2)c1F (stereo in doubt) [Example 164, N-(4-((S)-3-aminopyrrolidin-1-yl)-2-(difluoromethyl)-1-methyl-1H-benzo[d]imidazol-5-yl)-3-fluoro-2-(2-fluoro-6-methoxyphenyl)isonicotinamide]"
25,< 100,"[2H]C([2H])([2H])C(n1ncc2c(N3C[C@H](N)C(C)(C)C3)c(NC(=O)c3ccc(=O)n(-c4c(F)cccc4F)n3)ccc21)C([2H])([2H])[2H] [Example 279, (R)-N-(4-(4-amino-3,3-dimethylpyrrolidin-1-yl)-1-(propan-2-yl-1,1,1,3,3,3-d6)-1H-indazol-5-yl)-1-(2,6-difluorophenyl)-6-oxo-1,6-dihydropyridazine-3-carboxamide]"
26,< 100,"Cc1nc2c(N3CCC[C@H]3CN)c(NC(=O)c3ccc(=O)n(-c4c(F)cccc4F)n3)ccc2n1C [Example 93, (S)-N-(4-(2-(aminomethyl)pyrrolidin-1-yl)-1,2-dimethyl-1H-benzo[d]imidazol-5-yl)-1-(2,6-difluorophenyl)-6-oxo-1,6-dihydropyridazine-3-carboxamide]"
27,< 100,"Cc1nc2c(N3CC[C@H](N)C3)c(NC(=O)c3ccc(=O)n(-c4c(F)cccc4F)n3)ccc2n1C1CCOCC1 [Example 88, (S)-N-(4-(3-aminopyrrolidin-1-yl)-2-methyl-1-(tetrahydro-2H-pyran-4-yl)-1H-benzo[d]imidazol-5-yl)-1-(2,6-difluorophenyl)-6-oxo-1,6-dihydropyridazine-3-carboxamide]"
28,< 100,"CC(C)c1nc2c(N3CC[C@@](C)(N)C3)c(NC(=O)c3ccc(=O)n(-c4c(F)cccc4F)n3)ccc2n1C [Example 123, (R)-N-(4-(3-amino-3-methylpyrrolidin-1-yl)-2-isopropyl-1-methyl-1H-benzo[d]imidazol-5-yl)-1-(2,6-difluorophenyl)-6-oxo-1,6-dihydropyridazine-3-carboxamide]"
